Molecules are shown by their SMILES.

The text below walks through data of ChEMBL document CHEMBL1154501, “2/4-Substituted-9-fluorenones and their O-glucosides as potential immunomodulators and anti-herpes simplex virus-2 agents. Part 5” (Eur J Med Chem, 2008).

For data set [1], the system named is PBMC. Kind of data set: Cytotoxicity against human PBMC at 60 ug/mL after 48 hrs by MTT assay. The class given is cell-based. For orientation: Tetrazolium assays rely on reduction of a dye to a coloured formazan, in cell work by metabolically active cells.
Data set [2] relates to PBMC. Description: Cytotoxicity against human PBMC at 40 ug/mL after 48 hrs by MTT assay. The class given is cell-based.
In data set [3] the test system is PBMC. Description: Cytotoxicity against human PBMC at 20 ug/mL after 48 hrs by MTT assay. The class given is cell-based.
The test system of data set [4] is Human alphaherpesvirus 2. Kind of data set: Antiviral activity against HSV2 in human PBMC assessed as inhibition of viral replication at 40 ug/mL. The class given is functional.
The subject of data set [5] is Human alphaherpesvirus 2. Description: Antiviral activity against HSV2 in human PBMC assessed as inhibition of viral replication at 20 ug/mL. The class given is functional.
Data set [6] concerns PBMC. Kind of data set: Induction of IFNalpha release in human PBMC at 20 ug/mL after 24 hrs by ELISA. The class given is functional.
Data set [7] relates to PBMC. Description: Induction of IFNalpha release in human PBMC at 20 ug/mL after 48 hrs by ELISA. The class given is functional. Background: In an ELISA, binding on a coated surface is turned into a signal by an enzyme label.
Data set [8] concerns PBMC. Kind of data set: Induction of TNFalpha release in human PBMC at 20 ug/mL after 24 hrs by ELISA. The class given is functional.
Data set [9] concerns PBMC. Description: Induction of TNFalpha release in human PBMC at 20 ug/mL after 48 hrs by ELISA. The class given is functional.
Data set [10] deals with PBMC. Description: Induction of IFNalpha release in human PBMC at 40 ug/mL after 24 hrs by ELISA. The class given is functional.
The subject of data set [11] is PBMC. Description: Induction of IFNalpha release in human PBMC at 40 ug/mL after 48 hrs by ELISA. The class given is functional.
Data set [12] relates to PBMC. Kind of data set: Induction of TNFalpha release in human PBMC at 40 ug/mL after 24 hrs by ELISA. The class given is functional.
Data set [13] has as its system PBMC. Description: Induction of TNFalpha release in human PBMC at 40 ug/mL after 48 hrs by ELISA. The class given is functional.

On to `O=C(NCCOCCO[C@@H]1O[C@H](CO)[C@@H](O[C@H]2O[C@H](CO)[C@@H](O)[C@H](O)[C@H]2O)[C@H](O)[C@H]1O)c1ccc2c(c1)C(=O)c1ccccc1-2`, for which the Activity in data set [1] is 18%; in data set [2], 0%; in data set [3] it was 0%; in [6], under 4.8 pg/mL; in [7], 10 pg/mL; in data set [8], under 5.8 pg/mL. Also, the Activity in data set [9] was 18 pg/mL; in data set [10], under 4.8 pg/mL; in data set [11], 30 pg/mL; in data set [12], under 5.8 pg/mL; in data set [13] it was 27 pg/mL. The PFU/ml in data set [4] is 32000; in data set [5] it was 53000.
For the compound `O=C(NCCOCCO[C@@H]1O[C@H](CO)[C@@H](O)[C@H](O)[C@H]1O)c1ccc2c(c1)C(=O)c1ccccc1-2`, the Activity in data set [1] is 6%; in [2], 0%; in data set [3], 0%; in data set [6], under 4.8 pg/mL; in data set [7], 17 pg/mL; in data set [8], 9 pg/mL. For the same compound, the Activity came to 31 pg/mL in data set [9]; 8 pg/mL in [10]; 31 pg/mL in data set [11]; 13 pg/mL in data set [12]; 39 pg/mL in data set [13]. In addition, the results for the PFU/ml in data set [4] and in data set [5] were 36000 and 49000, respectively.
As for `O=C(OCCCCO[C@H]1O[C@H](CO)[C@@H](O)[C@H](O)[C@H]1O)c1cccc2c1-c1ccccc1C2=O`, the Activity in [1] came to 57%; in data set [2] it was 38%; in [3] it was 22%.
`O=C(NCCOCCO[C@H]1O[C@H](CO)[C@@H](O)[C@H](O)[C@H]1O)c1ccc2c(c1)C(=O)c1ccccc1-2`: the Activity in data set [1] is 16%; in data set [2], 0%; in data set [3], 0%; in [6], under 4.8 pg/mL; in data set [7], 17 pg/mL; in data set [8] it was under 5.8 pg/mL. Besides, the Activity is 14 pg/mL in data set [9]; under 4.8 pg/mL in data set [10]; 31 pg/mL in data set [11]; under 5.8 pg/mL in data set [12]; 30 pg/mL in data set [13]. Also, the values for the PFU/ml in [4] and in data set [5] were 34000 and 60000, respectively.
For the compound `O=C(OCCCCO[C@@H]1O[C@H](CO)[C@@H](O[C@H]2O[C@H](CO)[C@@H](O)[C@H](O)[C@H]2O)[C@H](O)[C@H]1O)c1cccc2c1-c1ccccc1C2=O`, the Activity is listed as 69% in data set [1], 37% in data set [2] and 26% in [3].
On to `O=C(OCCCO)c1cccc2c1-c1ccccc1C2=O`, for which the Activity is 41% in data set [1]; 22% in data set [2]; 0% in data set [3]; under 4.8 pg/mL in data set [6]; 8 pg/mL in data set [7]; under 5.8 pg/mL in [8]. In [9], this compound came in with an Activity of 11 pg/mL. Besides, in [5], the PFU/ml is reported as 60000.
With `O=C(NCCCCO)c1ccc2c(c1)C(=O)c1ccccc1-2`, the Activity is 45% in data set [1], 28% in [2] and 20% in [3].
In the case of `O=C(OCCCCO)c1cccc2c1-c1ccccc1C2=O`, the Activity was 38% in data set [1]; 21% in [2]; 0% in data set [3]; under 4.8 pg/mL in data set [6]; 12 pg/mL in data set [7]; under 5.8 pg/mL in data set [8]. In data set [9], this compound registered an Activity of 6 pg/mL. Besides, the PFU/ml in [5] is reported as 71000.
As for `O=C(OCCO)c1cccc2c1-c1ccccc1C2=O`, the Activity in data set [1] was 14%; in data set [2], 6%; in [3], 0%; in [6], under 4.8 pg/mL; in [7] it was 16 pg/mL; in data set [8], under 5.8 pg/mL. Moreover, the Activity in data set [9] was 21 pg/mL. Further, the PFU/ml in data set [5] stood at 58000.
On to `O=C(NCCCO)c1ccc2c(c1)C(=O)c1ccccc1-2`, for which the Activity is 15% in [1]; 0% in data set [2]; 0% in data set [3]; under 4.8 pg/mL in data set [6]; 7 pg/mL in data set [7]; under 5.8 pg/mL in [8]. In addition, the Activity came out at 40 pg/mL in data set [9]; 13 pg/mL in [10]; 37 pg/mL in [11]; 27 pg/mL in data set [12]; 51 pg/mL in data set [13]. The PFU/ml in data set [4] amounted to 4100; in data set [5], 6500.
Consider `O=C(NCCOCCOC1O[C@H](COC2O[C@H](CO)[C@@H](O)[C@H](O)[C@H]2O)[C@@H](O)[C@H](O)[C@H]1O)c1ccc2c(c1)C(=O)c1ccccc1-2` (single isomer, unassigned), for which the Activity in [1] was 21%; in data set [2], 0%; in data set [3], 0%; in [6], under 4.8 pg/mL; in data set [7] it was 14 pg/mL; in data set [8], under 5.8 pg/mL. For the same compound, the Activity in data set [9] was 16 pg/mL; in data set [10], under 4.8 pg/mL; in [11], 25 pg/mL; in data set [12], under 5.8 pg/mL; in [13] it was 21 pg/mL. Moreover, the figures for the PFU/ml in data set [4] and in data set [5] were 35000 and 42000, respectively.
With `CC(O)CNC(=O)c1ccc2c(c1)C(=O)c1ccccc1-2` (stereo unspecified), the Activity in data set [1] was 5%; in [2], 0%; in data set [3] it was 0%; in [6], under 4.8 pg/mL; in data set [7], 18 pg/mL; in [8], under 5.8 pg/mL. The Activity in data set [9] stood at 20 pg/mL; in [10], 21 pg/mL; in data set [11] it was 45 pg/mL; in [12] it was 14 pg/mL; in data set [13], 33 pg/mL. Moreover, the PFU/ml in [4] worked out at 3500; in data set [5], 6000.
In the case of `O=C(OCCCCO[C@H]1O[C@H](CO[C@H]2O[C@H](CO[C@H]3O[C@H](CO)[C@@H](O)[C@H](O)[C@H]3O)[C@@H](O)[C@H](O)[C@H]2O)[C@@H](O)[C@H](O)[C@H]1O)c1cccc2c1-c1ccccc1C2=O`, the Activity in data set [1] is 42%; in [2], 19%; in data set [3] it was 0%; in [6] it was under 4.8 pg/mL; in data set [7], 14 pg/mL; in data set [8] it was under 5.8 pg/mL. This compound showed an Activity in data set [9] of 9 pg/mL. For the same compound, the PFU/ml in data set [5] is listed as 70000.
As to `O=C(OCCCCO[C@@H]1O[C@H](CO)[C@@H](O)[C@H](O)[C@H]1O)c1cccc2c1-c1ccccc1C2=O`, the Activity in data set [1] is 7%; in data set [2], 0%; in [3] it was 0%; in data set [6], under 4.8 pg/mL; in [7] it was 10 pg/mL; in data set [8] it was under 5.8 pg/mL. Further, the Activity in data set [9] is 18 pg/mL; in [10], under 4.8 pg/mL; in data set [11], 29 pg/mL; in [12] it was under 5.8 pg/mL; in data set [13] it was 30 pg/mL. Besides, the PFU/ml in data set [4] was 36000; in data set [5], 78000.
Turning to `O=C(NCCOCCO)c1ccc2c(c1)C(=O)c1ccccc1-2`, the Activity was 4% in data set [1]; 0% in data set [2]; 0% in [3]; under 4.8 pg/mL in data set [6]; 21 pg/mL in data set [7]; under 5.8 pg/mL in data set [8]. Also, the Activity in [9] amounted to 17 pg/mL; in data set [10], 6 pg/mL; in [11], 38 pg/mL; in data set [12], 24 pg/mL; in [13], 48 pg/mL. Further, the PFU/ml in data set [4] is reported as 3900; in data set [5] it was 5300.
As to `O=C(OCCCCO[C@@H]1O[C@H](CO[C@H]2O[C@H](CO)[C@@H](O)[C@H](O)[C@H]2O)[C@@H](O)[C@H](O)[C@H]1O)c1cccc2c1-c1ccccc1C2=O`, the Activity in [1] is 52%; in data set [2] it was 29%; in data set [3] it was 0%; in data set [6], under 4.8 pg/mL; in [7], 9 pg/mL; in [8], under 5.8 pg/mL. Also, the Activity in data set [9] was found to be 15 pg/mL. The PFU/ml in data set [5] stood at 68000.
With `O=C(NCCO)c1ccc2c(c1)C(=O)c1ccccc1-2`, the Activity in [1] was 2%; in data set [2], 0%; in data set [3], 0%; in data set [6], under 4.8 pg/mL; in data set [7], 11 pg/mL; in data set [8], under 5.8 pg/mL. For the same compound, the Activity in data set [9] is 13 pg/mL; in data set [10], 9 pg/mL; in data set [11], 29 pg/mL; in data set [12] it was 14 pg/mL; in data set [13], 36 pg/mL. Further, the PFU/ml in data set [4] was 37000; in [5] it was 48000.
